Assay results reported in US20220087987A1, “A METHOD FOR TREATING SWI/SNF COMPLEX-DEFICIENT CANCERS COMPRISING GLUTATHIONE (GSH) METABOLIC PATHWAY INHIBITOR” (National Cancer Center, priority 2018, published 2022).
Counter-ions that a name gives are not always drawn. Like-named read-outs stand apart in the source and are kept apart here.

Experiments:
Assay type in all cases: cell-based, human
[1] = Drug library screen, cell viability (CellTiter-Glo); details: human
How it was run: (§1)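 Luminescent ATP read-out (CellTiter-Glo) at day 5, normalised to solvent (DMSO) controls, in paired HCT116 lines, ARID1A knockout versus wild type. Candidates selected where KO cells fell below 40% viability and WT cells stayed above 80%.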

ARID1A-KO HCT116 cells = experiment: as above; details: Homo sapiens, HCT-116, 120 h, read-out: Cell viability, KO
How it was run: as §1

[2] = test system: ARID1A-proficient and ARID1A-deficient cancer cell lines; experiment: Cell viability and colony formation in cancer cell line panel; details: cell viability after 3 days
[3] = HCT116 ARID1A-WT, 10 μM for 5 days, relative to cells treated with solvent (DMSO), read-out: Cell viability, WT
[4] = HCT116 ARID1A-KO, 10 μM for 5 days, relative to cells treated with solvent (DMSO)

## CSc1ccc(/C=C2/C(C)=C(CC(=O)O)c3cc(F)ccc32)cc1 [Sulindac sulfide]
[1]; [3]
  viability at 5 days, 10 μM: 195%
ARID1A-KO HCT116 cells; [4]
  viability at 10 µM: 140%

## O[C@H]1[C@H]2[C@H](O)CCCN2C[C@H]1O [Swainsonine]
[1]; [3]
  viability: 115%
ARID1A-KO HCT116 cells; [4]
  viability at 10 µM: 110%

## CC1=C(O)C(=O)[C@@H]2O[C@@H]2C1=O [Terreic acid]
[1]; [3]
  viability: 88.9%
ARID1A-KO HCT116 cells; [4]
  viability at 10 µM: 90.5%

## C/C=C(/C)C(=O)O[C@H]1C(C)=C2[C@H]([C@@H]1OC(=O)CCCCCCC)[C@@](C)(OC(C)=O)C[C@H](OC(=O)CCC)[C@@]1(O)[C@H]2OC(=O)[C@@]1(C)O [Thapsigargin]
[1]
  viability at 5 days, 10 μM: 2.63%
ARID1A-KO HCT116 cells
  viability at 10 µM: 2.88%

## Cn1c(=O)c2[nH]cnc2n(C)c1=O [Theophylline]
[1]; [3]
  viability at 5 days, 10 μM: 203%
ARID1A-KO HCT116 cells; [4]
  viability at 10 µM: 140%

## Cc1c(C)c2c(c(C)c1O)CCC(C)(COc1ccc(CC3SC(=O)NC3=O)cc1)O2 (stereo not shown) [Troglitazone]
[1]; [3]
  viability at 5 days, 10 μM: 101%
ARID1A-KO HCT116 cells; [4]
  viability at 10 µM: 94.7%

## N#CC(=C(/N)Sc1ccccc1N)/C(C#N)=C(\N)Sc1ccccc1N [U0126]
[1]
  viability: 80.5%
ARID1A-KO HCT116 cells
  viability at 10 µM: 68.3%

## COc1cc2c(NC3CCN(C(C)C)CC3)nc(C3CCCCC3)nc2cc1OCCCN1CCCC1 [UNC0638]
[1]; [3]
  viability at 5 days, 10 μM: 2.6%
ARID1A-KO HCT116 cells; [4]
  viability at 10 µM: 3.8%

## CC(C)[C@@H]1NC(=O)[C@H](C)OC(=O)[C@@H](C(C)C)NC(=O)[C@@H](C(C)C)OC(=O)[C@H](C(C)C)NC(=O)[C@H](C)OC(=O)[C@@H](C(C)C)NC(=O)[C@@H](C(C)C)OC(=O)[C@H](C(C)C)NC(=O)[C@H](C)OC(=O)[C@@H](C(C)C)NC(=O)[C@@H](C(C)C)OC1=O [Valinomycin]
[1]; [3]
  viability: 3.65%
ARID1A-KO HCT116 cells; [4]
  viability at 10 µM: 4.17%

## COc1cc2c(Nc3ccc(Br)cc3F)ncnc2cc1OCC1CCN(C)CC1 [Vandetanib]
[1]; [3]
  viability at 5 days, 10 μM: 14.1%
ARID1A-KO HCT116 cells; [4]
  viability at 10 µM: 28.9%

## CCCS(=O)(=O)Nc1ccc(F)c(C(=O)c2c[nH]c3ncc(-c4ccc(Cl)cc4)cc23)c1F [Vemurafenib]
[1]; [3]
  viability at 5 days, 10 μM: 103%
ARID1A-KO HCT116 cells; [4]
  viability at 10 µM: 108%

## CC[C@]1(O)C[C@@H]2CN(CCc3c([nH]c4ccccc34)[C@@](C(=O)OC)(c3cc4c(cc3OC)N(C)[C@H]3[C@@](O)(C(=O)OC)[C@H](OC(C)=O)[C@]5(CC)C=CCN6CC[C@]43[C@@H]65)C2)C1 [Vinblastine sulfate]
[1]; [3]
  viability at 5 days, 10 μM: 2.73%
ARID1A-KO HCT116 cells; [4]
  viability at 10 µM: 4.49%

## CS(=O)(=O)c1ccc(C(=O)Nc2ccc(Cl)c(-c3ccccn3)c2)c(Cl)c1 [Vismodegib]
[1]; [3]
  viability at 5 days, 10 μM: 88.7%
ARID1A-KO HCT116 cells; [4]
  viability at 10 µM: 109%

## C[C@H](NC(=O)/C(C#N)=C/c1cccc(Br)n1)c1ccccc1 [WP1066]
[1]; [3]
  viability at 5 days, 10 μM: 15.3%
ARID1A-KO HCT116 cells; [4]
  viability at 10 µM: 20%

## COC[C@H]1OC(=O)c2coc3c2[C@@]1(C)C1=C(C3=O)[C@@H]2CCC(=O)[C@@]2(C)C[C@H]1OC(C)=O [Wortmannin]
[1]; [3]
  viability at 5 days, 10 μM: 181%
ARID1A-KO HCT116 cells; [4]
  viability at 10 µM: 116%

## Oc1nc(-c2ccc(C(F)(F)F)cc2)nc2c1CSCC2 [XAV939]
[1]; [3]
  viability at 5 days, 10 μM: 87%
ARID1A-KO HCT116 cells; [4]
  viability at 10 µM: 111%

## COc1cc(O)c(CC=C(C)C)c(O)c1C(=O)/C=C/c1ccc(O)cc1 [Xanthohumol]
[1]; [3]
  viability at 5 days, 10 μM: 104%
ARID1A-KO HCT116 cells; [4]
  viability at 10 µM: 112%

## C[C@@H](N)[C@H]1CC[C@H](C(=O)Nc2ccncc2)CC1 [Y27632]
[1]; [3]
  viability at 5 days, 10 μM: 160%
ARID1A-KO HCT116 cells
  viability at 10 µM: 98.6%

## COCCn1c2c([n+](Cc3cnccn3)c1C)C(=O)c1ccccc1C2=O [YM155]
[1]; [3]
  viability at 5 days, 10 μM: 2.67%
ARID1A-KO HCT116 cells; [4]
  viability at 10 µM: 3.24%

## CCCOc1ccccc1-c1nc2nn[nH]c2c(=O)[nH]1 [Zaprinast]
[1]; [3]
  viability at 5 days, 10 μM: 93.5%
ARID1A-KO HCT116 cells; [4]
  viability at 10 µM: 82.6%

## CC(C)C[C@H](NC(=O)[C@H](Cc1ccccc1)NC(=O)c1cnccn1)B(O)O [bortezomib]
[1]; [3]
  viability at 5 days, 10 μM: 3.06%
ARID1A-KO HCT116 cells; [4]
  viability at 10 µM: 5.81%

## CN(C)CCCN1c2ccccc2Sc2ccc(Cl)cc21 [chlorpromazine hydrochloride]
[1]; [3]
  viability at 5 days, 10 μM: 7.83%
ARID1A-KO HCT116 cells; [4]
  viability at 10 µM: 15.6%

## C[C@@H](Oc1cc(-c2cnn(C3CCNCC3)c2)cnc1N)c1c(Cl)ccc(F)c1Cl [crizotinib]
[1]; [3]
  viability at 5 days, 10 μM: 2.29%
ARID1A-KO HCT116 cells; [4]
  viability at 10 µM: 5.88%

## CC1=C2C[C@H]3[C@@H](CC=C4C[C@@H](O)CC[C@@]43C)[C@@H]2CC[C@]12O[C@@H]1C[C@H](C)CN[C@H]1[C@H]2C [cyclopamine]
[1]; [3]
  viability: 49.3%
ARID1A-KO HCT116 cells; [4]
  viability at 10 µM: 86.7%

## Cc1nc(Nc2ncc(C(=O)Nc3c(C)cccc3Cl)s2)cc(N2CCN(CCO)CC2)n1 [dasatinib]
[1]; [3]
  viability at 5 days, 10 μM: 33.5%
ARID1A-KO HCT116 cells; [4]
  viability at 10 µM: 37.8%

## CNCCCN1c2ccccc2CCc2ccccc21 [desipramine hydrochloride]
[1]; [3]
  viability at 5 days, 10 μM: 34.6%
ARID1A-KO HCT116 cells; [4]
  viability at 10 µM: 63.1%

## C#Cc1cccc(Nc2ncnc3cc(OCCOC)c(OCCOC)cc23)c1 [erlotinib]
[1]; [3]
  viability at 5 days, 10 μM: 48.1%
ARID1A-KO HCT116 cells; [4]
  viability at 10 µM: 48.6%

## CO[C@H]1C[C@@H]2CC[C@@H](C)[C@@](O)(O2)C(=O)C(=O)N2CCCC[C@H]2C(=O)O[C@H]([C@H](C)C[C@@H]2CC[C@@H](OCCO)[C@H](OC)C2)CC(=O)[C@H](C)/C=C(\C)[C@@H](O)[C@@H](OC)C(=O)[C@H](C)C[C@H](C)/C=C/C=C/C=C/1C [everolimus]
[1]; [3]
  viability at 5 days, 10 μM: 77.4%
ARID1A-KO HCT116 cells; [4]
  viability at 10 µM: 77.1%

## COc1cc2ncnc(Nc3ccc(F)c(Cl)c3)c2cc1OCCCN1CCOCC1 [gefitinib]
[1]; [3]
  viability at 5 days, 10 μM: 54.5%
ARID1A-KO HCT116 cells; [4]
  viability at 10 µM: 72.4%

## Cc1ccc(NC(=O)c2ccc(CN3CCN(C)CC3)cc2)cc1Nc1nccc(-c2cccnc2)n1 [imatinib mesylate]
[1]; [3]
  viability at 5 days, 10 μM: 37.2%
ARID1A-KO HCT116 cells; [4]
  viability at 10 µM: 55.4%

## O=C1NC(=O)c2c1c1c3ccccc3[nH]c1n1cncc21 [isogranulatimide]
[1]; [3]
  viability at 5 days, 10 μM: 118%
ARID1A-KO HCT116 cells; [4]
  viability at 10 µM: 151%

## CS(=O)(=O)CCNCc1ccc(-c2ccc3ncnc(Nc4ccc(OCc5cccc(F)c5)c(Cl)c4)c3c2)o1 [lapatinib]
[1]; [3]
  viability at 5 days, 10 μM: 52.7%
ARID1A-KO HCT116 cells; [4]
  viability at 10 µM: 78.4%

## Nc1cccc2c1CN(C1CCC(=O)NC1=O)C2=O (stereo not shown) [lenalidomide]
[1]; [3]
  viability at 5 days, 10 μM: 91.1%
ARID1A-KO HCT116 cells; [4]
  viability at 10 µM: 112%

## Cc1cn(-c2cc(NC(=O)c3ccc(C)c(Nc4nccc(-c5cccnc5)n4)c3)cc(C(F)(F)F)c2)cn1 [nilotinib]
[1]; [3]
  viability at 5 days, 10 μM: 85.8%
ARID1A-KO HCT116 cells; [4]
  viability at 10 µM: 91.6%

## CCCCCCCCCCC[C@@H](C[C@@H]1OC(=O)[C@H]1CCCCCC)OC(=O)[C@H](CC(C)C)NC=O [orlistat]
[1]; [3]
  viability at 5 days, 10 μM: 84.6%
ARID1A-KO HCT116 cells; [4]
  viability at 10 µM: 86.1%

## Cc1ccc(Nc2nccc(N(C)c3ccc4c(C)n(C)nc4c3)n2)cc1S(N)(=O)=O [pazopanib]
[1]; [3]
  viability at 5 days, 10 μM: 19.8%
ARID1A-KO HCT116 cells; [4]
  viability at 10 µM: 39.8%

## CNC(=O)c1cc(Oc2ccc(NC(=O)Nc3ccc(Cl)c(C(F)(F)F)c3)cc2)ccn1 [sorafenib]
[1]; [3]
  viability at 5 days, 10 μM: 61.4%
ARID1A-KO HCT116 cells; [4]
  viability at 10 µM: 70.4%

## O=C(O)c1cc(/N=N/c2ccc(S(=O)(=O)Nc3ccccn3)cc2)ccc1O [sulfasalazine]
[2]
  sensitivity of ARID1A-deficient TOV21G versus ARID1A-proficient RMG-I ovarian cancer cells: more sensitive than ARID1A-proficient RMG-I ovarian cancer cells

## CCN(CC)CCNC(=O)c1c(C)[nH]c(/C=C2\C(=O)Nc3ccc(F)cc32)c1C [sunitinib malate]
[1]; [3]
  viability at 5 days, 10 μM: 3.23%
ARID1A-KO HCT116 cells; [4]
  viability at 10 µM: 5.95%

## CC(C)(C)c1cc(O)ccc1O [t-Butylhydroquinone (BHQ), t-Butylhydroquinone]
[1]; [3]
  viability at 5 days, 10 μM: 95.4%
ARID1A-KO HCT116 cells; [4]
  viability at 10 µM: 96.6%

## CC1(C)CCC(C)(C)c2cc(NC(=O)c3ccc(C(=O)O)cc3)ccc21 [tamibarotene]
[1]; [3]
  viability at 5 days, 10 μM: 77.3%
ARID1A-KO HCT116 cells; [4]
  viability at 10 µM: 101%

## Cn1nnc2c(C(N)=O)ncn2c1=O [temozolomide]
[1]; [3]
  viability at 5 days, 10 μM: 84.4%
ARID1A-KO HCT116 cells; [4]
  viability at 10 µM: 104%

## CO[C@H]1C[C@@H]2CC[C@@H](C)[C@@](O)(O2)C(=O)C(=O)N2CCCC[C@H]2C(=O)O[C@H]([C@H](C)C[C@@H]2CC[C@@H](OC(=O)C(C)(CO)CO)[C@H](OC)C2)CC(=O)[C@H](C)/C=C(\C)[C@@H](O)[C@@H](OC)C(=O)[C@H](C)C[C@H](C)/C=C/C=C/C=C/1C [temsirolimus]
[1]; [3]
  viability at 5 days, 10 μM: 82.1%
ARID1A-KO HCT116 cells; [4]
  viability at 10 µM: 75%

## O=C1CCC(N2C(=O)c3ccccc3C2=O)C(=O)N1 (stereo not shown) [thalidomide]
[1]; [3]
  viability at 5 days, 10 μM: 95%
ARID1A-KO HCT116 cells; [4]
  viability at 10 µM: 107%

## CC1=C(/C=C/C(C)=C/C=C/C(C)=C/C(=O)O)C(C)(C)CCC1 [tretinoin]
[1]; [3]
  viability at 5 days, 10 μM: 77.7%
ARID1A-KO HCT116 cells; [4]
  viability at 10 µM: 96.3%

## O=C(CCCCCCC(=O)Nc1ccccc1)NO [vorinostat]
[1]; [3]
  viability at 5 days, 10 μM: 2.82%
ARID1A-KO HCT116 cells; [4]
  viability at 10 µM: 6.02%
